These results are taken from US9512084B2, “Amino pyrimidine derivatives” (Novartis AG, priority 2013, dated 2016).

Experiment [1] deals with full-length human recombinant BTK (Homo sapiens (Human), UniProt Q06187). The experiment in a line: Inhibition of Btk enzymatic activity (biochemical enzyme assay, Caliper). The following applies: 6.4 nM enzyme solution, 164 μM ATP solution, 30° C., 60 minutes. How it is done: The inhibitory activity of the present compounds against Btk was assessed in a biochemical enzyme assay. […] The assay plates were prepared by addition of 50 nl per well of compound solution in 90% DMSO. […] Kinase reactions were analyzed on a Caliper LC3000 workstation by separating phosphorylated and unphosphorylated peptides and kinase activities were calculated from the amounts of newly formed phospho-peptide.
Sequence of full-length human recombinant BTK (Q06187 whole entry): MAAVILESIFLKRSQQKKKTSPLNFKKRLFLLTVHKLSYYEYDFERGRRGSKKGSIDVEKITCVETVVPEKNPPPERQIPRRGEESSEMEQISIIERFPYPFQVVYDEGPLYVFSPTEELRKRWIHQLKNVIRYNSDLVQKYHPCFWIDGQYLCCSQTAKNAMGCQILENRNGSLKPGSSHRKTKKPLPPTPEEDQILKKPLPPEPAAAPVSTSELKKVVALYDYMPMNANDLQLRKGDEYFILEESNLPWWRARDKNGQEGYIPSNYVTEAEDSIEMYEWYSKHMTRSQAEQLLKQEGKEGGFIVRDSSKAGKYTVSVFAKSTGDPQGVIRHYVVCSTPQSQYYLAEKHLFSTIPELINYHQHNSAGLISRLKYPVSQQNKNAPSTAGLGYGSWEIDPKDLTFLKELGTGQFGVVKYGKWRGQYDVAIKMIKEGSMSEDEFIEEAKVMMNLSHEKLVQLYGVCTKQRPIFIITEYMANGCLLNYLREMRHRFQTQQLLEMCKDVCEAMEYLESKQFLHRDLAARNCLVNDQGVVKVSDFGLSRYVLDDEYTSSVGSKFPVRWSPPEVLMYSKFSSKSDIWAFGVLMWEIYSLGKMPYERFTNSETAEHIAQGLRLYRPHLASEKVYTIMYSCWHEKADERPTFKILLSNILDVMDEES

A further experiment concerns the target Btk (Rattus norvegicus, UniProt Q5S255). In words: Inhibition of Btk activity in blood (in vitro B cell activation assay, CD86, rat whole blood). Type of experiment: cell-based. The following applies: Lewis rat whole blood diluted to 50%, anti-rat IgM + rat IL-4, 24 hours, CD86 on CD45RA positive B cells. The procedure: Alternatively, the inhibitory activity of the present compounds in blood was assessed in the following in vitro B cell activation assay. Whole blood was collected from the abdominal aorta of anaesthetized adult male Lewis rats and was anticoagulated with 100 U/ml sodium heparin. Blood was then diluted to 50% with high glucose DMEM (Amimed) supplemented with […] penicillin, […], 2 mM L-glutamin, 50 mg/ml dextran 40 and 5% FCS (Fetaclone I, Gibco). Then, 190 μl prediluted blood was mixed in 96 well U-bottomed microtiter plates (Nunc) with 10 μl of serial dilutions of test compounds in DMSO. […] Activation of B cells was measured by flow cytometry after staining for the B cell subset with PE-Cy5-labeled anti-ratCD45RA (Beckton-Dickinson) and for the activation marker CD86 (PE-labeled anti-rat CD86 (Beckton-Dickinson). All staining procedures were performed at RT for 30 min in the dark in 96-deep well V-bottomed microtiter plates (Corning) with BD Lysing Solution (Beckton-Dickinson).
Cytometric data was acquired on a FACScalibur flow cytometer (BD Biosciences) and the subpopulation of lymphocytes were gated according to size and granularity and further analyzed for expression of CD45RA and the activation markers. Data for the inhibition of B cell activation were calculated from the percentage of cells positively stained for activation markers within the CD45RA positive population.

Sequence of Btk (Q5S255 1-660): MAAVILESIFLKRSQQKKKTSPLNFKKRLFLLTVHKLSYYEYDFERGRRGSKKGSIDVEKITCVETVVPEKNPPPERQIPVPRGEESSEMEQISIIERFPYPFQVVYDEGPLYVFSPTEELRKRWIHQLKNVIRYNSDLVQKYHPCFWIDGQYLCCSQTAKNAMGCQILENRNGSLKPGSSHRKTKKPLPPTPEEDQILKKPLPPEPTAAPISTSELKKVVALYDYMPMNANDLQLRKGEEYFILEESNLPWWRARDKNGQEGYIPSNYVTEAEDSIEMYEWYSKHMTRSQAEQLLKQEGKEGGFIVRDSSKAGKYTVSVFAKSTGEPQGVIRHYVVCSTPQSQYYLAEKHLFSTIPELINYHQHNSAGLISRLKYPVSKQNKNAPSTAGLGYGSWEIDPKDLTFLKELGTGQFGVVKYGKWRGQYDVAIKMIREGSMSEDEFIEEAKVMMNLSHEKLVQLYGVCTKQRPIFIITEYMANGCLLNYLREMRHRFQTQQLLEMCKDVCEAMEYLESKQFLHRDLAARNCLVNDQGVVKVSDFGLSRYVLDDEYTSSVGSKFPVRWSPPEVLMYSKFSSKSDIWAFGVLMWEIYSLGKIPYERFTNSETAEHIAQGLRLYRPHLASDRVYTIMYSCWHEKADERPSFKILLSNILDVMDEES

A word on the IC50: it is the concentration at which inhibition is half-maximal. On to `C#CC(=O)N1CC(Oc2c(N)ncnc2-c2cc(F)cc(NC(=O)c3ccc(C4CC4)cc3F)c2C)C1` [Example 3, N-(3-(6-Amino-5-((1-propioloylazetidin-3-yl)oxy)pyrimidin-4-yl)-5-fluoro-2-methylphenyl)-4-cyclopropyl-2-fluorobenzamide], for which the results for the IC50 (in experiment [1]; on Btk) were 1 nM and 124 nM, respectively.
For `C=CC(=O)N(C)CCOc1c(N)ncnc1-c1cccc(-n2ccc3cc(C4CC4)cc(F)c3c2=O)c1` [Example 12, N-(2-((4-Amino-6-(3-(6-cyclopropyl-8-fluoro-1-oxoisoquinolin-2(1H)-yl)phenyl)pyrimidin-5-yl)oxy)ethyl)-N-methylacrylamide], in that order: 12 nM and 459 nM.
`C=CC(=O)N(C)CCOc1c(N)ncnc1-c1cc(F)cc(N2CCc3cc(C4CC4)ccc3C2=O)c1CO` [Example 25, N-(2-((4-Amino-6-(3-(6-cyclopropyl-1-oxo-3,4-dihydroisoquinolin-2(1H)-yl)-5-fluoro-2-(hydroxymethyl)phenyl)pyrimidin-5-yl)oxy)ethyl)-N-methylacrylamide]: the IC50 in experiment [1] was found to be 1 nM; on Btk, 65 nM.
The matching figures for `C=CC(=O)N1CCC[C@H]1COc1c(N)ncnc1-c1cc(F)cc(N2CCc3cc(C4CC4)ccc3C2=O)c1CO` [Example 24, (S)-2-(3-(5-((1-Acryloylpyrrolidin-2-yl)methoxy)-6-aminopyrimidin-4-yl)-5-fluoro-2-(hydroxymethyl)phenyl)-6-cyclopropyl-3,4-dihydroisoquinolin-1(2H)-one]: 0.5 nM and 32 nM.
The matching figures for `CC#CC(=O)N[C@@H](C)COc1c(N)ncnc1-c1cc(F)cc(NC(=O)c2ccc(C3CC3)cc2F)c1C` [Example 18, (S)—N-(3-(6-Amino-5-(2-(but-2-ynamido)propoxy)pyrimidin-4-yl)-5-fluoro-2-methylphenyl)-4-cyclopropyl-2-fluorobenzamide]: 1 nM and 419 nM.
As for `C=CC(=O)N1CC[C@H](OC)[C@H]1COc1c(N)ncnc1-c1cc(F)cc(NC(=O)c2ccc(C3CC3)cc2F)c1C` [Example 38, N-(3-(5-(((2R,3S)-1-Acryloyl-3-methoxypyrrolidin-2-yl)methoxy)-6-aminopyrimidin-4-yl)-5-fluoro-2-methylphenyl)-4-cyclopropyl-2-fluorobenzamide], the IC50 came to 2 nM in experiment [1] and 70 nM at Btk.
For `C/C=C/C(=O)N1CC(Oc2c(N)ncnc2-c2cc(F)cc(NC(=O)c3ccc(C4CC4)cc3F)c2C)C1` [Example 2, (E)-N-(3-(6-Amino-5-((1-(but-2-enoyl)azetidin-3-yl)oxy)pyrimidin-4-yl)-5-fluoro-2-methylphenyl)-4-cyclopropyl-2-fluorobenzamide], in that order: 38 nM and 1110 nM.
Turning to `Cc1c(NC(=O)c2ccc(C3CC3)cc2F)cc(F)cc1-c1ncnc(N)c1OCCN(C)C(=O)C1CO1` (stereo not drawn) [Example 11, N-(2-((4-Amino-6-(3-(4-cyclopropyl-2-fluorobenzamido)-5-fluoro-2-methylphenyl)pyrimidin-5-yl)oxy)ethyl)-N-methyloxirane-2-carboxamide], the IC50 came out at 10 nM in experiment [1] and 323 nM on Btk.
For `C=CC(=O)N1C[C@H](OC)C[C@H]1COc1c(N)ncnc1-c1cc(F)cc(N2CCc3cc(C4CC4)ccc3C2=O)c1CO` [Example 28, 2-(3-(5-(((2S,4R)-1-Acryloyl-4-methoxypyrrolidin-2-yl)methoxy)-6-aminopyrimidin-4-yl)-5-fluoro-2-(hydroxymethyl)phenyl)-6-cyclopropyl-3,4-dihydroisoquinolin-1(2H)-one], in that order: 1 nM and 33 nM.
The matching figures for `CC#CC(=O)N1CC(Oc2c(N)ncnc2-c2cc(F)cc(NC(=O)c3ccc(C4CC4)cc3F)c2C)C1` [Example 4, N-(3-(6-Amino-5-((1-(but-2-ynoyl)azetidin-3-yl)oxy)pyrimidin-4-yl)-5-fluoro-2-methylphenyl)-4-cyclopropyl-2-fluorobenzamide]: 9 nM and 376 nM.
For `C=CC(=O)N1C[C@@H](OC)C[C@H]1COc1c(N)ncnc1-c1cc(F)cc(NC(=O)c2ccc(C3CC3)cc2F)c1C` [Example 29, N-(3-(5-(((2S,4S)-1-Acryloyl-4-methoxypyrrolidin-2-yl)methoxy)-6-aminopyrimidin-4-yl)-5-fluoro-2-methylphenyl)-4-cyclopropyl-2-fluorobenzamide], in that order: 4 nM and 134 nM.
With `C=CC(=O)N(CCF)CCOc1c(N)ncnc1-c1cc(F)cc(NC(=O)c2ccc(C3CC3)cc2F)c1C` [Example 15, N-(3-(6-Amino-5-(2-(N-(2-fluoroethyl)acrylamido)ethoxy)pyrimidin-4-yl)-5-fluoro-2-methylphenyl)-4-cyclopropyl-2-fluorobenzamide], the values for the IC50 (in experiment [1]; on Btk) were 1 nM and 29 nM, respectively.
The matching figures for `C#CC(=O)N1CC[C@H]1COc1c(N)ncnc1-c1cc(F)cc(NC(=O)c2ccc(C3CC3)cc2F)c1C` [Example 34, (S)—N-(3-(6-Amino-5-((1-propioloylazetidin-2-yl)methoxy)pyrimidin-4-yl)-5-fluoro-2-methylphenyl)-4-cyclopropyl-2-fluorobenzamide]: 2 nM and 208 nM.
Turning to `C=CC(=O)N1C[C@H](C#N)C[C@H]1COc1c(N)ncnc1-c1cc(F)cc(NC(=O)c2ccc(C3CC3)cc2F)c1C` [Example 39, N-(3-(5-(((2S,4R)-1-Acryloyl-4-cyanopyrrolidin-2-yl)methoxy)-6-aminopyrimidin-4-yl)-5-fluoro-2-methylphenyl)-4-cyclopropyl-2-fluorobenzamide], the results for the IC50 (in experiment [1]; on Btk) were 1 nM and 176 nM, respectively.
As to `CC#CC(=O)N1C[C@@H](OC)C[C@H]1COc1c(N)ncnc1-c1cc(F)cc(NC(=O)c2ccc(C3CC3)cc2F)c1C` [Example 30, N-(3-(6-Amino-5-(((2S,4S)-1-(but-2-ynoyl)-4-methoxypyrrolidin-2-yl)methoxy)pyrimidin-4-yl)-5-fluoro-2-methylphenyl)-4-cyclopropyl-2-fluorobenzamide], the figures for the IC50 (in experiment [1]; at Btk) were 6 nM and 222 nM, respectively.
For `CC#CC(=O)N1C[C@H](OC)C[C@H]1COc1c(N)ncnc1-c1cc(F)cc(NC(=O)c2ccc(C3CC3)cc2F)c1C` [Example 27, N-(3-(6-Amino-5-(((2S,4R)-1-(but-2-ynoyl)-4-methoxypyrrolidin-2-yl)methoxy)pyrimidin-4-yl)-5-fluoro-2-methylphenyl)-4-cyclopropyl-2-fluorobenzamide], the IC50 worked out at 3 nM in experiment [1] and 76 nM on Btk.
The matching figures for `CC#CC(=O)N1C[C@H](F)C[C@H]1COc1c(N)ncnc1-c1cc(F)cc(NC(=O)c2ccc(C3CC3)cc2F)c1C` [Example 32, N-(3-(6-Amino-5-(((2S,4R)-1-(but-2-ynoyl)-4-fluoropyrrolidin-2-yl)methoxy)pyrimidin-4-yl)-5-fluoro-2-methylphenyl)-4-cyclopropyl-2-fluorobenzamide]: 4 nM and 55 nM.
For `CC#CC(=O)N(C)[C@@H](C)COc1c(N)ncnc1-c1cc(F)cc(NC(=O)c2ccc(C3CC3)cc2F)c1C` [Example 20, (S)—N-(3-(6-Amino-5-(2-(N-methylbut-2-ynamido)propoxy)pyrimidin-4-yl)-5-fluoro-2-methylphenyl)-4-cyclopropyl-2-fluorobenzamide], in that order: 5 nM and 330 nM.
For `COC/C=C/C(=O)N(C)CCOc1c(N)ncnc1-c1cc(F)cc(NC(=O)c2ccc(C3CC3)cc2F)c1C` [Example 9, (E)-N-(3-(6-Amino-5-(2-(4-methoxy-N-methylbut-2-enamido)ethoxy)pyrimidin-4-yl)-5-fluoro-2-methylphenyl)-4-cyclopropyl-2-fluorobenzamide], in that order: 10 nM and 240 nM.
Consider `C=CC(=O)N1C[C@@H](C#N)C[C@H]1COc1c(N)ncnc1-c1cc(F)cc(NC(=O)c2ccc(C3CC3)cc2F)c1C` [Example 40, N-(3-(5-(((2S,4S)-1-Acryloyl-4-cyanopyrrolidin-2-yl)methoxy)-6-aminopyrimidin-4-yl)-5-fluoro-2-methylphenyl)-4-cyclopropyl-2-fluorobenzamide], for which the IC50 in experiment [1] was 2 nM; at Btk it was 80 nM.
For `CC#CC(=O)N1CCC[C@H]1COc1c(N)ncnc1-c1cc(F)cc(NC(=O)c2ccc(C3CC3)cc2F)c1C` [Example 23, (S)—N-(3-(6-Amino-5-((1-(but-2-ynoyl)pyrrolidin-2-yl)methoxy)pyrimidin-4-yl)-5-fluoro-2-methylphenyl)-4-cyclopropyl-2-fluorobenzamide], in that order: 1 nM and 57 nM.
